Earlier results on two molecules are cited in US20250295763A1 (priority 2024, published 2025).

The conditions of the data set: background statement; cited from earlier work.

Turning to `CCC(C)C(CC(O)CC(=O)OC1C(C)OC(OC(=O)C23CCC(C)(C)CC2C2=CCC4C5(C)CCC(OC6OC(C(=O)O)C(O)C(OC7OCC(O)C(O)C7O)C6OC6OC(CO)C(O)C(O)C6O)C(C)(C=O)C5CCC4(C)C2(C)CC3O)C(OC2OC(C)C(OC3OCC(O)C(OC4OCC(O)(CO)C4O)C3O)C(OC3OC(CO)C(O)C(O)C3O)C2O)C1O)OC(=O)CC(O)CC(OC1OC(COC2OC(C)C(O)C(O)C2O)C(O)C1O)C(C)CC` (centres unmarked) [QS-17], the solubility in water result is “water-soluble”.

Regarding `CCC(C)C(CC(O)CC(=O)OC1C(C)OC(OC(=O)C23CCC(C)(C)CC2C2=CCC4C5(C)CCC(OC6OC(C(=O)O)C(O)C(OC7OCC(O)C(O)C7O)C6OC6OC(CO)C(O)C(O)C6O)C(C)(C=O)C5CCC4(C)C2(C)CC3O)C(OC2OC(C)C(OC3OCC(O)C(OC4OCC(O)(CO)C4O)C3O)C(OC3OC(CO)C(O)C(O)C3O)C2O)C1O)OC(=O)CC(O)CC(OC1OC(CO)C(O)C1O)C(C)CC` (centres unmarked) [QS-18], the solubility in water result is recorded as “water-soluble”.
